The record followed here is ChEMBL document CHEMBL1201862, “PubChem BioAssay data set” (2004).

Activity calls are given as the source filed them.

The target in test [1] is Cytochrome P450 3A4 (Homo sapiens, UniProt P08684). The note with it: Potency.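 Also: confirmatory qHTS run detecting inhibitors and substrates of CYP3A4.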
In test [2] the target is T1, Leucine aminopeptidase (Plasmodium falciparum 3D7, UniProt Q8IL11).
T1 sequence (Q8IL11 whole entry): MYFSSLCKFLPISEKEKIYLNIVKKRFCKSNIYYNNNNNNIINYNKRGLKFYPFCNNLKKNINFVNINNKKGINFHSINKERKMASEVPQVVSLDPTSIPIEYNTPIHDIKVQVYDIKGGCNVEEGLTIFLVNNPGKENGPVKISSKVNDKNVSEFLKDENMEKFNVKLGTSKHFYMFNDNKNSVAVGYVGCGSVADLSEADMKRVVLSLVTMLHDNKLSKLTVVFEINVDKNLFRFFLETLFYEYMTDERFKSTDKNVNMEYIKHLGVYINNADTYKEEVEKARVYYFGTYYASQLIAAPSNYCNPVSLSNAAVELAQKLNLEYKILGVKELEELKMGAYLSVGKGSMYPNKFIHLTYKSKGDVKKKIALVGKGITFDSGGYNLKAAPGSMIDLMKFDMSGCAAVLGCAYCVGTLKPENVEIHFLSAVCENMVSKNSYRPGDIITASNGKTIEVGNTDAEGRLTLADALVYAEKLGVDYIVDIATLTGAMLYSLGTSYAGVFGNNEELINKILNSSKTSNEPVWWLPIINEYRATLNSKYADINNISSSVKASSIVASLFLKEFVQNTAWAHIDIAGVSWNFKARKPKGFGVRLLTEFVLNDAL
Kind of test: P. falciparum M17LAP inhibitors, primary screen, biochemical, fluorogenic H-Leu-NHMec substrate, 1536-well (AID 1619). It counts as functional.

Test [3] in a line: cells. Format: functional, cell-based.
The nature of test [4]: inhibitors of intracellular T. cruzi replication, confirmation, NIH3T3 host cells, beta-gal luminescence (AID 2044).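 Also: intracellular parasites grown in NIH/3T3 mouse fibroblasts as host cells; luminescent beta-galactosidase reporter signal from transgenic T. cruzi replicating inside host cells; inhibitors lower the luminescence signal.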 It counts as functional, cell-based.
A short description of test [5]: cytotoxicity toward NIH3T3 fibroblasts, dose response, counter-screen, cell-based, ATP luminescence, mouse fibroblasts (AID 2010).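 Also: cells exposed to compound for about 90 hours before reading.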 It counts as functional. For orientation: The purpose of a counterscreen is to sort out artefacts and off-target activity.
Test [6] is described as follows: Shn3 3'UTR reporter inhibitors, dose response, cell-based, Clone20 osteoblasts, firefly luciferase, cherry-picked (AID 624132).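 Also: firefly luciferase luminescence from reporter carrying the Shn3 3'UTR in osteoblasts.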 It counts as functional.
A short description of test [7]: control 3'UTR Renilla luciferase suppression, dose response, counter-screen for Shn3 inhibitor project, cell-based, Clone20-Shn3RL, cherry-picked (AID 624133). Format: functional.
In test [8] the test system is HT-1080. The test can be described thus: cytotoxicity in HT1080 fibrosarcoma cells, cell-based, fluorescence readout (AID 620). Format: functional. As to conditions: Homo sapiens.
Test [9] deals with Nonstructural protein 1 (Influenza A virus, UniProt Q194T2). It counts as functional, Influenza A virus (A/California/07/2009(H1N1)).
Sequence of Nonstructural protein 1 (Q194T2 whole entry): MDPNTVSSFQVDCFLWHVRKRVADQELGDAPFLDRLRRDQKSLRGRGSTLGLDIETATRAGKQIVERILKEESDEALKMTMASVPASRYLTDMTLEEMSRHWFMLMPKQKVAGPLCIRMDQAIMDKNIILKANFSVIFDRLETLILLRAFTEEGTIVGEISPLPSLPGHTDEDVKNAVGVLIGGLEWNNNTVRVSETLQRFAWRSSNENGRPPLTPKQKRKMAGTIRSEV
Test [10] deals with Luciferin 4-monooxygenase (Photinus pyralis, UniProt P08659). Kind of test: Counter Screen for Luciferase-based Assay Positives. [Related pubchem assays: 620, 618, 411 ].
Sequence of Luciferin 4-monooxygenase (P08659 whole entry): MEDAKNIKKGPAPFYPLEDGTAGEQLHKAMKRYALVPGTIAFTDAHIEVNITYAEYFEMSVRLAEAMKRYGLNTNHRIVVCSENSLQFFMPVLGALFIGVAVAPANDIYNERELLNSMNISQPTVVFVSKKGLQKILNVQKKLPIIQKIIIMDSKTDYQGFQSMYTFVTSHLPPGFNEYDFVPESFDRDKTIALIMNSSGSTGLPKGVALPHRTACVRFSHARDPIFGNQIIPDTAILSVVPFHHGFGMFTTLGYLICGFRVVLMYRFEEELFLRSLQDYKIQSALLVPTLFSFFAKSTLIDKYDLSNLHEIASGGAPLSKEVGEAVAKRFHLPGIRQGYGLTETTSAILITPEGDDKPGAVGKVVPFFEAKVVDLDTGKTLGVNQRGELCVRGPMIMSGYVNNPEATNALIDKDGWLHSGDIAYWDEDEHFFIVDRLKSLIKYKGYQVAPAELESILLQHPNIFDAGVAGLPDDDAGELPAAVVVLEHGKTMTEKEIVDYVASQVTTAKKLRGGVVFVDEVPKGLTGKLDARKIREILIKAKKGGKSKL
Test [11] in a line: cells. It counts as functional, cell-based. The source holds these as a separate data set.
A short description of test [12]: HepG2 cell cytotoxicity, dose response, cytotoxicity control for Shn3 inhibitor project, CellTiter-Glo, cherry-picked (AID 624134). Format: functional, cell-based. For orientation: ATP-based viability assays read luminescence as a measure of living cells.
Test [13] addresses T2, Acyl-homoserine lactone acylase PvdQ (Pseudomonas aeruginosa (strain LESB58), UniProt Q9I194).
T2 sequence (Q9I194 whole entry): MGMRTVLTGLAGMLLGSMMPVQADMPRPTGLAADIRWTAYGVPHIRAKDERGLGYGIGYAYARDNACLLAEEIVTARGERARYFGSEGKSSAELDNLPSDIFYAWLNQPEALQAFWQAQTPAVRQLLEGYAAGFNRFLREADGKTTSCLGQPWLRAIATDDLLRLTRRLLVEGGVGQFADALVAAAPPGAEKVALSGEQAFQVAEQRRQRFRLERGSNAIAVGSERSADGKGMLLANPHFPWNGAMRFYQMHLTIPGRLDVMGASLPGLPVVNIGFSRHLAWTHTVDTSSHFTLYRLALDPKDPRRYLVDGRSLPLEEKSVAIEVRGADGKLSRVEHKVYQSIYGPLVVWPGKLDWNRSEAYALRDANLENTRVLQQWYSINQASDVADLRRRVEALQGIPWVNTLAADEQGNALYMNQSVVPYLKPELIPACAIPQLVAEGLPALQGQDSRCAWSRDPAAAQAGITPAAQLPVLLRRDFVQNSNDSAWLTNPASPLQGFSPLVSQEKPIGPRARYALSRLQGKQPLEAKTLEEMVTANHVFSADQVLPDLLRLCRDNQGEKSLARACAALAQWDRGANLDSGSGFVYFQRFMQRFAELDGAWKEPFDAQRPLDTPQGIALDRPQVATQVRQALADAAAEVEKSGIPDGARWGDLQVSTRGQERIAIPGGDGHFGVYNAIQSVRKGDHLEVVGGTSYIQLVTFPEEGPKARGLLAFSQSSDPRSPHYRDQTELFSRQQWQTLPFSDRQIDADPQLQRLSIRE
Kind of test: P. aeruginosa PvdQ acylase inhibitors, dose response, biochemical, fluorescence, plate reader and imaging, cherry-picks (AID 493231).

The target of test [14] is G-protein coupled receptor 55 (Homo sapiens, UniProt Q9Y2T6). The test can be described thus: GPR55 agonists via beta-arrestin recruitment, primary screen, imaging, U2OS cells, beta-arrestin-GFP redistribution (AID 1961). Format: functional.
Sequence of G-protein coupled receptor 55 (Q9Y2T6 whole entry): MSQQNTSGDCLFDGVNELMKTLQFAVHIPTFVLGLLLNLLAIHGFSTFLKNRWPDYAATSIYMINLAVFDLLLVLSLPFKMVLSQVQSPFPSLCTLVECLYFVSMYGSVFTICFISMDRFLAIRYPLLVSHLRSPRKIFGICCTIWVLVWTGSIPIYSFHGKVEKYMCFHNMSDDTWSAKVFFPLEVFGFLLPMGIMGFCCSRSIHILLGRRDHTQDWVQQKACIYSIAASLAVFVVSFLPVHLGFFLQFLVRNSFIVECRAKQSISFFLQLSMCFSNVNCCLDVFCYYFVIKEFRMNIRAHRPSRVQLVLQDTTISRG
The nature of test [15]: A Cell Based Secondary Assay To Explore Cytotoxicity of Compounds that Sensitize Mycobacterium Tuberculosis to Beta-Lactam Antibiotics. It counts as functional.
Test [16] in a line: growth suppression of PTEN-null colon cells, dose response, cell-based, HCT116 PTEN knockout (AID 1047).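 Also: HCT116 colon tumor cells with PTEN knocked out; cells exposed to compound for 60 hours before readout; potency for loss of cell viability measured by luminescence.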 Format: functional.
Test [17] can be described thus: growth suppression of beta-catenin-knockout colon cells, dose response, cell-based, HCT116, human colon tumor (AID 1045).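 Also: HCT116 colon tumor cells with beta catenin knocked out; cells exposed to compound for 60 hours.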 It counts as functional.
Test [18] has as its target T3, Aminopeptidase N (Plasmodium falciparum FcB1/Columbia, UniProt O96935).
T3 sequence (O96935 whole entry): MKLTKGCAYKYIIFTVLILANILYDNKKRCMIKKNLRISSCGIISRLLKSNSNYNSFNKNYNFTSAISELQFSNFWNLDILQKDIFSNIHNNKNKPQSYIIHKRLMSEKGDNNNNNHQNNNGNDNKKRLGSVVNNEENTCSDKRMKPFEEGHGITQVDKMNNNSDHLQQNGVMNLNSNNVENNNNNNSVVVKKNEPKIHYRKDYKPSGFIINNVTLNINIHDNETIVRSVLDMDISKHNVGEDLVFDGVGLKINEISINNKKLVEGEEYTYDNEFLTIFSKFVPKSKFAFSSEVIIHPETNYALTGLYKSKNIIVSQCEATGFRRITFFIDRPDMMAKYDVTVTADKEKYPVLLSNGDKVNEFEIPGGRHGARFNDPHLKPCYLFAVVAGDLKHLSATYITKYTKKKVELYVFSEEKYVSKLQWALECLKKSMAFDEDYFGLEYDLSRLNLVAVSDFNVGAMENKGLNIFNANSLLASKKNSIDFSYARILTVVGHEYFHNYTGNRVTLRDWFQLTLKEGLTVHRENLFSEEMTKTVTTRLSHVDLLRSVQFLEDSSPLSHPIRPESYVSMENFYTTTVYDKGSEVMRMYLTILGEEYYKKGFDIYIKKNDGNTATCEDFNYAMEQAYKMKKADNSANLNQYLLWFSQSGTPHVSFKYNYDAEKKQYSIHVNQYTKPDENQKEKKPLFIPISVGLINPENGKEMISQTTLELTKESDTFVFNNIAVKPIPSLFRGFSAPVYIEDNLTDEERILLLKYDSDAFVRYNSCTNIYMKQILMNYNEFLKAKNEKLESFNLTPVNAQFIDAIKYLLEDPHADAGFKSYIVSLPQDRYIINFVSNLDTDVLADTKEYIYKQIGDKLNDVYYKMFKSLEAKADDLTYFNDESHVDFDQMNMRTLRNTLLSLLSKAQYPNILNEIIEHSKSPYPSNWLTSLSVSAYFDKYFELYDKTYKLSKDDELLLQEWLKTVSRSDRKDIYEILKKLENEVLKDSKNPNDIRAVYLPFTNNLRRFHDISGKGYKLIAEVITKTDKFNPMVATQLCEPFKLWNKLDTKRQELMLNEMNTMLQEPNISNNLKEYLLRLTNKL
The test can be described thus: P. falciparum M1AAP inhibitors, biochemical, fluorogenic H-Leu-NHMec substrate, 1536-well (AID 1445). The arrangement: species or system Plasmodium falciparum 3D7, 3D7.

Test [19] deals with T4, Heat shock factor protein 1 (Mus musculus, UniProt P38532).
T4 sequence (P38532 whole entry): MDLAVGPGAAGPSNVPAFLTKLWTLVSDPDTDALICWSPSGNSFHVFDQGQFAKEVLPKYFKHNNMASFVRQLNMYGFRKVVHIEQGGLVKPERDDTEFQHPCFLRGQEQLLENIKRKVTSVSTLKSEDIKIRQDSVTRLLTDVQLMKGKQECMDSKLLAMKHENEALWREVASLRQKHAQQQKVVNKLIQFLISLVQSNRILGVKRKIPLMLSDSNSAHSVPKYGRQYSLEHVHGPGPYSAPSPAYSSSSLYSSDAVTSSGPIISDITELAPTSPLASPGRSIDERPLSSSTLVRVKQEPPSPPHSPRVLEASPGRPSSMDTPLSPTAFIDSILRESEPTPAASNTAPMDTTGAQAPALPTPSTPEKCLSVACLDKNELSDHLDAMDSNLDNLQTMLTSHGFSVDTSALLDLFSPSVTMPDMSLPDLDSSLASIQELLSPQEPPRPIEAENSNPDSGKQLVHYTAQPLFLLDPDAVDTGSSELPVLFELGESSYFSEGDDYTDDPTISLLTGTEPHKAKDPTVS
Kind of test: HSF1 potentiators in luciferase reporter cells, confirmation, cell-based, NIH3T3, luminescence, dose retest (AID 435004).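 Also: stress induced by proteasome inhibitor MG132 added 30 min after compound; luciferase reporter driven by HSF1 response element in NIH3T3 cells; actives raise luminescence as potentiators of the MG132 stress response.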 Format: functional. Background: A reporter such as luciferase makes a cellular process visible.

In test [20] the test system is Vero. Kind of test: Vero cell cytotoxicity, cytotoxicity control for flavivirus capping enzyme inhibitors (AID 588742). Format: functional. The note with it: Chlorocebus sabaeus.
Test [21] deals with Genome polyprotein (dengue virus type 2, UniProt P29990). The test can be described thus: Dengue-2 NS5 methyltransferase inhibitors, primary screen, biochemical, confirmation dose response (AID 588689). Format: functional.
Sequence of Genome polyprotein (P29990 2492-3391 limits assumed): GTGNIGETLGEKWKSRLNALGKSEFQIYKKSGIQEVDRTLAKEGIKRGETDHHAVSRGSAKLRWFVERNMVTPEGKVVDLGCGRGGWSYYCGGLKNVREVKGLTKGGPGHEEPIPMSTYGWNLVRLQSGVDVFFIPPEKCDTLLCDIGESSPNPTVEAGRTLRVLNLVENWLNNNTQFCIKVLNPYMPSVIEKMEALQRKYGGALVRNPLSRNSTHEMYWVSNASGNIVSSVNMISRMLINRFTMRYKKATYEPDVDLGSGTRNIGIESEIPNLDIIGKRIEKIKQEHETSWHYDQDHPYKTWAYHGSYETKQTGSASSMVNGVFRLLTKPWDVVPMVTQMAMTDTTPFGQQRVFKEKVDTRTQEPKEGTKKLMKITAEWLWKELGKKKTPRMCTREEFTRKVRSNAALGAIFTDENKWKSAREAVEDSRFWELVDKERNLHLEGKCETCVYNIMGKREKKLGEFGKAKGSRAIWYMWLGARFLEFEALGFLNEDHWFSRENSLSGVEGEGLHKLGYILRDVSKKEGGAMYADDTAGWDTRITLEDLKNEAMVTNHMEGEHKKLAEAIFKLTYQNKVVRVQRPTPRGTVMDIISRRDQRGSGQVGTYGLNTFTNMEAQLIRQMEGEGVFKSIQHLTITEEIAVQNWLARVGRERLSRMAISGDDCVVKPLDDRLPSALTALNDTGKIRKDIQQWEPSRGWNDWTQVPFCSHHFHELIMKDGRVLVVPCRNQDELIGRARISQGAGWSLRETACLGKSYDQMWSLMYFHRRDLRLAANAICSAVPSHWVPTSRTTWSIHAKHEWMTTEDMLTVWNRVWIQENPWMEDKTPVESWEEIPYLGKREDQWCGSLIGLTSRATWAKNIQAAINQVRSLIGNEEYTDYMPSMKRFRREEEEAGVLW
Test [22] deals with T5, CAAX prenyl protease 2 (Saccharomyces cerevisiae S288c, UniProt Q03530).
T5 sequence (Q03530 whole entry): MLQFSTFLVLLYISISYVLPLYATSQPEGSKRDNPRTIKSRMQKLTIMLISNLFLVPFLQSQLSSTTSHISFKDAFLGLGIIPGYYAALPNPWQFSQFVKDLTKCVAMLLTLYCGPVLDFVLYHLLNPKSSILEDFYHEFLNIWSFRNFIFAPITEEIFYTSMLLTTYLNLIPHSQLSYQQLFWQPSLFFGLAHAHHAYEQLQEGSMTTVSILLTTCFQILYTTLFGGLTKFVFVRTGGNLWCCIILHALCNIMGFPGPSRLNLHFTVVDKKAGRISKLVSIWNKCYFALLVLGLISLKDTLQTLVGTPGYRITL
Format: biochemical.

Sequence of Cytochrome P450 3A4 (P08684 whole entry): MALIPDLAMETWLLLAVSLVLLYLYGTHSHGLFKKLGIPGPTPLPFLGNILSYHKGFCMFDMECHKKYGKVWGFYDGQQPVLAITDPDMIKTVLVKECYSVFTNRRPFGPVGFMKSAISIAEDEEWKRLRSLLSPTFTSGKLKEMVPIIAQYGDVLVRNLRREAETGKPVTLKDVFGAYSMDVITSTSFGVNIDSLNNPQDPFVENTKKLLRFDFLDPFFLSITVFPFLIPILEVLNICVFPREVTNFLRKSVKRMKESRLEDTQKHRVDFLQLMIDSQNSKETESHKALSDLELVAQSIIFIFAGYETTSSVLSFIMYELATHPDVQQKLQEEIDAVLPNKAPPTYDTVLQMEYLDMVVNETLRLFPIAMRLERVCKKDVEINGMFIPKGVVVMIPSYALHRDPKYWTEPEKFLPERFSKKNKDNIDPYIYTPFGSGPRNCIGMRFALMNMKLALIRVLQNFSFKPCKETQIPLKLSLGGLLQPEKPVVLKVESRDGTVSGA

A word on the AC50: it is the concentration at which the activity in the assay is half-maximal. On to `COc1cc(O)c(C)c(O)c1` [2,6-DIHYDROXY-4-METHOXYTOLUENE], for which the AC50 in test [1] is 39.8 µM (inconclusive). One may read the IC50 as the midpoint of a concentration-inhibition curve. Turning to `Cc1ncc(CC(=O)n2cc(C(=O)c3cc(F)ccc3O)cn2)s1`, in test [2], the half-inhibitory concentration (IC50) was 71.1 µM (active).

For orientation: EC50 means the midpoint of the concentration-response curve. Take `C=CCNc1nc(-c2ccccn2)nnc1-c1ccccc1`: the concentration giving a half-maximal response (EC50) in test [3] was 7.13 µM (active); in test [4], 2.27 µM (active); in test [5] it was 5.1 µM (active); in test [8], > 50 µM (not active); in [10], < 0.2 µM (active); in test [11], > 350 µM (not active). The half-maximal activity concentration (AC50) is 3.17 µM (active) in test [6], 3.97 µM (active) in test [7] and 6.36 µM (active) in test [12]. Also, the IC50 in test [9] was 1.25 µM (active). As to `Cc1ccc2scc(CN3CCCC3)c2c1`, in test [13], the AC50 was 5.66 µM (active). `CC(=C/c1ccccc1)/C=N/NC(=O)c1nnn(-c2nonc2N)c1CN1CCC(C)CC1`: the concentration giving a half-maximal response (EC50) in test [14] was 0.601 µM (active). Usually CC50 stands for the concentration giving 50% cytotoxicity. `COc1ccc(-c2c(C(F)(F)F)oc3cc(OCC(=O)Nc4ccccc4C(F)(F)F)ccc3c2=O)cc1OC`: the cytotoxic concentration (CC50) in test [15] was 10.9 µM (active). Moreover, the concentration giving a half-maximal response (EC50) in test [16] is 3.45 µM (active); in test [17] it was 3.72 µM (active). `CCOc1cc([N+](=O)[O-])cc(/C=C2/NC(=O)N(Cc3ccccc3F)C2=O)c1O`: the half-inhibitory concentration (IC50) in [18] was 55.6 µM (active); in test [21], 58.8 µM (active). Further, the EC50 in test [19] was > 260 µM (inactive). The CC50 in test [20] is > 40 µM (active). Regarding `Cc1nccc(-c2cccc(N/N=C(\C#N)C(=O)c3ccccc3)c2)n1`, the IC50 in test [18] is 16 µM (active). In the case of `CCOC(=O)c1ccc(-c2ccc(CO)o2)cc1`, the AC50 in test [13] was 11.6 µM (active).

For `COc1cccc(/C=N/NC(=O)NC23CC4CC(CC(C4)C2)C3)c1O`, in test [15], the half-maximal cytotoxic concentration (CC50) is 23.3 µM (active). Turning to `COc1ccc(NC(=O)CC(Cc2ccccc2)C(=O)O)cc1` (stereo not given), the half-maximal inhibitory concentration (IC50) in test [2] is 18.7 µM (active).

As for `C#CCCCCCCCCCCCc1ccco1`, the half-maximal activity concentration (AC50) in [1] is 39.8 µM (inconclusive). As for `COc1cccc(-c2c(C(=O)N/N=C/c3sccc3C)nnn2-c2nonc2N)c1`, the AC50 in [22] is 7.8 µM (active).

Regarding `COCCCn1c(=N)c(C(=O)NCC2CCCO2)cc2c(=O)n3cccc(C)c3nc21` (stereo not given), the IC50 in test [18] is 78.4 µM (active). Take `C[C@@H]1CC=C[C@H]2[C@H]1C(=O)N(Cc1ccccc1)[C@H]2c1ccc(/C=C/c2ccccc2)cc1F`: the CC50 in [15] is > 40 µM (active). Turning to `CC(C)NC(=O)[C@H]1C[C@@H]1[C@H](NC(=O)OCc1ccccc1)c1ccccc1`, in [1], the AC50 is 7.94 µM (inconclusive).
